Results: US12497393B2, “β-lactam compound, use thereof and preparation method therefor” (priority 2020, dated 2025)
≈ marks a conversion by molar mass, not a printed value. Where two headings read alike, the source gives them in different places.

Columns and labels:
Test in all cases: Antibacterial activity MIC assay (two-fold dilution agar plating)
Format in all cases: cell-based
[1] = system: Serratia marcescens; details: Serratia marcescens ATCC 21074
Description: (§1) Antibacterial Activity-Evaluating Method (MIC Assay)
(§2) In this study, the compounds of the present invention were tested for their antibacterial activities by using two-fold dilution agar plating method and Denley Multipoint Inoculator A400 according to the guidelines of the CLSI/NCCLS standard. The tested strains were amplified by hydrolyzed casein peptone (Mueller-Hinton Agar) broth and Brain and Heart Infusion. The strains used in this study were bacterial strains that were purchased from ATCC or clinically isolated in Chinese hospitals. Aztreonam, polymyxin or levofloxacin was used as positive control. The drugs were diluted with hydrolyzed casein peptone broth to the desired concentrations including 128.0, 64.0, 32.0, 16.0, 8.0, 4.0, 2.0, 1.0, 0.5, 0.25, 0.125, 0.06 and 0.03 μg/mL, and then placed respectively into each well and mixed thoroughly. After inoculation, the tested strains were incubated for 18 hours at a constant temperature of 35° C., and their growth levels were observed. The drug concentration with no microbial growth in the well was recorded as the lowest Minimal Inhibitory Concentration (MIC).

[2] = system: Enterobacter cloacae; details: for MIC: read-out: Minimal Inhibitory Concentration (MIC)
Description: as §1, §2

[3] = system: Proteus vulgaris
Description: as §1, §2

[4] = system: Citrobacter freundii; details: Citrobacter freundii ATCC 43864
Description: as §1, §2

[5] = system: Proteus mirabilis
Description: as §1, §2

[6] = system: Enterobacter aerogenes; details: Enterobacter aerogenes ATCC 13048
Description: as §1, §2

[7] = system: Shigella flexneri; details: Shigella flexneri ATCC 12022
Description: as §1, §2

[8] = system: Acinetobacter baumannii; details: for MIC: Acinetobacter baumannii, read-out: Minimal Inhibitory Concentration (MIC)
Description: as §1, §2

[9] = system: Salmonella typhi
Description: as §1, §2

[10] = system: Stenotrophomonas maltophilia; details: Stenotrophomonas maltophilia ATCC 13636
Description: as §1, §2

[11] = system: Escherichia coli; details: for MIC: Escherichia coli, read-out: Minimal Inhibitory Concentration (MIC)
Description: as §1, §2

[12] = system: Klebsiella Pneumoniae; details: for MIC: Klebsiella pneumoniae, read-out: Minimal Inhibitory Concentration (MIC)
Description: as §1, §2

[13] = system: Providencia rettgeri
Description: as §1, §2

[14] = system: Pseudomonas aeruginosa; details: for MIC: read-out: Minimal Inhibitory Concentration (MIC)
Description: as §1, §2

[15] = Enterobacter cloacae CDC1000654
[16] = Escherichia coli 08-85, mcr-1(+)
[17] = Escherichia coli 13-43, mcr-1(+)
[18] = Escherichia coli 13-66, mcr-1(+)
[19] = Escherichia coli 16-1, ESBLs(+)
[20] = Escherichia coli 16-7, ESBLs(−)
[21] = Escherichia coli 17-R28, CRE, NDM-1(+)
[22] = Escherichia coli CDC1001728, NDM-1(+)
[23] = Klebsiella Pneumoniae 09-20, mcr-1(+)
[24] = Klebsiella Pneumoniae 16-2, ESBLs(−)
[25] = Klebsiella Pneumoniae 16-14, ESBLs(+)

## CC1(C)[C@H](NC(=O)/C(=N\OC2(C(=O)O)CC2)c2nsc(N)n2)C(=O)N1OS(=O)(=O)O [Compound A-6]
[1]
  Minimal Inhibitory Concentration (MIC): 1 µg/mL
[2]; Enterobacter cloacae ATCC 43560
  Minimal Inhibitory Concentration (MIC): 0.5 µg/mL
[2]; [15]
  Minimal Inhibitory Concentration (MIC): 64 µg/mL
[3]; Proteus vulgaris ATCC 29905
  Minimal Inhibitory Concentration (MIC): ≤0.03 µg/mL
[4]
  Minimal Inhibitory Concentration (MIC): 0.25 µg/mL
[5]; Proteus mirabilis ATCC 49565
  Minimal Inhibitory Concentration (MIC): 1 µg/mL
[6]
  Minimal Inhibitory Concentration (MIC): 1 µg/mL
[7]
  Minimal Inhibitory Concentration (MIC): 0.06 µg/mL
[8]; Acinetobacter baumannii 16-16
  Minimal Inhibitory Concentration (MIC): >64 µg/mL
[8]; Acinetobacter baumannii 16-33
  Minimal Inhibitory Concentration (MIC): 16 µg/mL
[8]; Acinetobacter baumannii ATCC 19606
  Minimal Inhibitory Concentration (MIC): 16 µg/mL
[9]; Salmonella typhi H901
  Minimal Inhibitory Concentration (MIC): 0.5 µg/mL
[10]
  Minimal Inhibitory Concentration (MIC): 32 µg/mL
[11]; [16]
  Minimal Inhibitory Concentration (MIC): 4 µg/mL
[11]; [17]
  Minimal Inhibitory Concentration (MIC): 4 µg/mL
[11]; [18]
  Minimal Inhibitory Concentration (MIC): 4 µg/mL
[11]; [19]
  Minimal Inhibitory Concentration (MIC): 0.5 µg/mL
[11]; [20]
  Minimal Inhibitory Concentration (MIC): 0.5 µg/mL
[11]; [21]
  Minimal Inhibitory Concentration (MIC): >64 µg/mL
[11]; Escherichia coli ATCC 25922, ESBLs(−)
  Minimal Inhibitory Concentration (MIC): 0.5 µg/mL
[11]; Escherichia coli ATCC 35218, ESBLs(+)
  Minimal Inhibitory Concentration (MIC): 0.25 µg/mL
[11]; [22]
  Minimal Inhibitory Concentration (MIC): 4 µg/mL
[12]; [23]
  Minimal Inhibitory Concentration (MIC): 2 µg/mL
[12]; [24]
  Minimal Inhibitory Concentration (MIC): 0.5 µg/mL
[12]; [25]
  Minimal Inhibitory Concentration (MIC): 4 µg/mL
[12]; Klebsiella Pneumoniae ATCC 700603, ESBLs(+)
  Minimal Inhibitory Concentration (MIC): 64 µg/mL
[12]; Klebsiella Pneumoniae ATCC BAA-2146, NDM-1(+)
  Minimal Inhibitory Concentration (MIC): 32 µg/mL
[13]; Providencia rettgeri ATCC 31052
  Minimal Inhibitory Concentration (MIC): ≤0.03 µg/mL
[14]; Pseudomonas aeruginosa 16-11
  Minimal Inhibitory Concentration (MIC): 16 µg/mL
[14]; Pseudomonas aeruginosa ATCC 27853
  Minimal Inhibitory Concentration (MIC): 16 µg/mL
[14]; Pseudomonas aeruginosa PAO1
  Minimal Inhibitory Concentration (MIC): 8 µg/mL

## C[C@H]1[C@H](NC(=O)/C(=N\OC(C)(C)C(=O)O)c2csc(N)n2)C(=O)N1S(=O)(=O)O [AZN, aztreonam, reference compound]
[1]; ATCC21074, read-out: Minimal Inhibitory Concentration (MIC)
  MIC: 0.12 µg/mL (≈ 0.276 µM)
[2]; ATCC43560, Enterobacter cloacae ATCC 43560
  MIC: ≤ 0.03 µg/mL
[2]; [15]
  MIC: > 128 µg/mL
[3]; Proteus vulgaris, ATCC29905, Proteus vulgaris ATCC 29905, read-out: Minimal Inhibitory Concentration (MIC)
  MIC: ≤ 0.03 µg/mL
[4]; ATCC43864, read-out: Minimal Inhibitory Concentration (MIC)
  MIC: 0.12 µg/mL (≈ 0.276 µM)
[5]; Proteus mirabilis, ATCC49565, Proteus mirabilis ATCC 49565, read-out: Minimal Inhibitory Concentration (MIC)
  MIC: ≤ 0.03 µg/mL
[6]; Klebsiella aerogenes, ATCC13048, read-out: Minimal Inhibitory Concentration (MIC)
  MIC: 0.12 µg/mL (≈ 0.276 µM)
[7]; ATCC12022, read-out: Minimal Inhibitory Concentration (MIC)
  MIC: 0.25 µg/mL (≈ 0.574 µM)
[8]; ATCC19606, Acinetobacter baumannii ATCC 19606
  MIC: 32 µg/mL (≈ 73.5 µM)
[8]; Acinetobacter baumannii 16-16
  MIC: 128 µg/mL (≈ 294 µM)
[8]; Acinetobacter baumannii 16-33
  MIC: 32 µg/mL (≈ 73.5 µM)
[9]; Salmonella enterica, TYPHI, read-out: Minimal Inhibitory Concentration (MIC)
  MIC: ≤ 0.03 µg/mL
[10]; ATCC13636, read-out: Minimal Inhibitory Concentration (MIC)
  MIC: 32 µg/mL (≈ 73.5 µM)
[11]; ATCC25922, Escherichia coli ATCC 25922, ESBLs(−)
  MIC: 0.06 µg/mL (≈ 0.138 µM)
[11]; ATCC35218, Escherichia coli ATCC 35218, ESBLs(+)
  MIC: ≤ 0.03 µg/mL
[11]; [16]
  MIC: 4 µg/mL (≈ 9.19 µM)
[11]; [17]
  MIC: 8 µg/mL (≈ 18.4 µM)
[11]; [18]
  MIC: 8 µg/mL (≈ 18.4 µM)
[11]; [19]
  MIC: ≤ 0.03 µg/mL
[11]; [20]
  MIC: 0.06 µg/mL (≈ 0.138 µM)
[11]; [21]
  MIC: 16 µg/mL (≈ 36.7 µM)
[11]; [22]
  MIC: 4 µg/mL (≈ 9.19 µM)
[12]; ATCC700603, Klebsiella Pneumoniae ATCC 700603, ESBLs(+)
  MIC: 32 µg/mL (≈ 73.5 µM)
[12]; ATCCBAA2146, Klebsiella Pneumoniae ATCC BAA-2146, NDM-1(+)
  MIC: > 128 µg/mL
[12]; [23]
  MIC: 0.25 µg/mL (≈ 0.574 µM)
[12]; [24]
  MIC: 0.06 µg/mL (≈ 0.138 µM)
[12]; [25]
  MIC: 4 µg/mL (≈ 9.19 µM)
[12]; Klebsiella Pneumoniae 17-R27, CRE
  MIC: 0.25 µg/mL (≈ 0.574 µM)
[13]; Providencia rettgeri, ATCC31052, Providencia rettgeri ATCC 31052, read-out: Minimal Inhibitory Concentration (MIC)
  MIC: ≤ 0.03 µg/mL
[14]; ATCC27853, Pseudomonas aeruginosa ATCC 27853
  MIC: 4 µg/mL (≈ 9.19 µM)
[14]; Pseudomonas aeruginosa 16-11
  MIC: > 128 µg/mL
[14]; Pseudomonas aeruginosa PAO1
  MIC: 4 µg/mL (≈ 9.19 µM)
